One data set deals with A549. In words: Antiproliferative activity against human A549 cells assessed as growth inhibition incubated for 48 hrs by Sulforhodamine B assay. The data set is classed as functional.
A further data set concerns 661W. The data set can be described thus: Cytotoxicity against mouse 661W cells by MTT based vision related toxicity assay. It is filed as cell-based.
The nature of data set [1]: Antiproliferative activity against human HUVEC cells assessed as growth inhibition incubated for 48 hrs by Sulforhodamine B assay. The data set is classed as cell-based. On the technique in general: The SRB assay estimates cell density from bound dye.
A further data set deals with HCT-116. The data set can be described thus: Antiproliferative activity against human HCT116 cells assessed as growth inhibition incubated for 48 hrs by Sulforhodamine B assay. The data set is classed as functional.
The next data set deals with Heat shock protein HSP90 (Homo sapiens, UniProt P07900+P08238). In words: Inhibition of HSP90 (unknown origin) assessed as competition of fluorescently labelled geldanamycin binding after 2 hrs by microplate reader analysis. It is filed as protein assay.
Another data set concerns Hep 3B2. The data set can be described thus: Antiproliferative activity against human Hep3B cells assessed as growth inhibition incubated for 48 hrs by Sulforhodamine B assay. It is filed as functional.
In the next data set the test system is MDA-MB-231. The data set can be described thus: Antiproliferative activity against human MDA-MB-231 cells assessed as growth inhibition incubated for 48 hrs by Sulforhodamine B assay. The data set is classed as functional.
A short description of a further data set: in vitro. Particulars: human, HUVEC cells versus A549 cells.
The nature of data set [2]: Apparent permeability across basolateral to apical in human Caco2 cells by LC-MS/MS analysis. The data set is classed as ADME, cell-based. Particulars: Caco-2. (Passage across Caco-2 layers is used to estimate intestinal permeability.)

The source of these data is ChEMBL document CHEMBL4814073, “Ring-opening of five-membered heterocycles conjugated 4-isopropylresorcinol scaffold-based benzamides as HSP90 inhibitors suppressing tumor growth in vitro and in vivo” (Eur J Med Chem, 2021).

Description for in vitro: Therapeutic index, ratio of IC50 for HUVEC cells to IC50 for human A549 cells

As for `CC(C)c1cc(C(=O)N(c2ccncc2)C(C)C)c(O)cc1O`, the GI50 with A549 came out at 190 nM.
For the compound `CC(C)c1cc(C(=O)Nc2ccc3c(ccn3C)c2)c(O)cc1O`, the GI50 in the data set on A549 was greater than 10000 nM.
As to `CC(C)c1cc(C(=O)N(c2ccc3[nH]ccc3c2)C(C)C)c(O)cc1O`, in the data set on A549, the GI50 was determined as 210 nM.
`CC(C)c1cc(-c2n[nH]c(=O)n2-c2ccc3c(ccn3C)c2)c(O)cc1O` [GANETESPIB] had an Activity in the data set on 661W greater than 10 µM.
With `CCN(C(=O)c1cc(C(C)C)c(O)cc1O)c1ccc2[nH]ccc2c1`, the GI50 at 48 h in data set [1] is less than 100 nM. Also, the GI50 with HCT-116 stood at 370 nM; in the data set on A549, 110 nM; in the data set on Hep 3B2, 110 nM; in the data set on MDA-MB-231, 80 nM. The IC50 at Heat shock protein HSP90 is 117 nM. Moreover, the selectivity ratio in “in vitro” was 0.9.
Regarding `CCN(C(=O)c1cc(C(C)C)c(O)cc1O)c1ccc2c(ccn2C)c1`, in the data set on A549, the GI50 worked out at 80 nM.
The compound `COC1=C2C[C@@H](C)C[C@H](OC)[C@H](O)[C@@H](C)/C=C(\C)[C@H](OC(N)=O)[C@@H](OC)/C=C\C=C(/C)C(=O)NC(=CC1=O)C2=O` [GELDANAMYCIN] had an Activity in the data set with 661W of 1.65 µM.
With `CC(C)c1cc(C(=O)Nc2ccncc2)c(O)cc1O`, in the data set on A549, the GI50 was greater than 10000 nM.
For the compound `COc1c(C)cnc(Cn2cnc3c(Cl)nc(N)nc32)c1C` [BIIB021], the GI50 at 48 h in data set [1] was 1420 nM. Also, the GI50 in the data set on Hep 3B2 and in the data set on MDA-MB-231 was 240 nM throughout. In the data set on 661W, the Activity is greater than 10 µM.
For `CC(C)c1cc(C(=O)N(c2cccnc2)C(C)C)c(O)cc1O`, the GI50 in the data set with A549 is 260 nM.
For `C=CCNC1=C2C[C@@H](C)C[C@H](OC)[C@H](O)[C@@H](C)/C=C(\C)[C@H](OC(N)=O)[C@@H](OC)/C=C\C=C(/C)C(=O)NC(=CC1=O)C2=O` [TANESPIMYCIN], in [1], the GI50 at 48 h was less than 100 nM. Besides, the GI50 in the data set with HCT-116 is 340 nM; in the data set on A549, 80 nM; with Hep 3B2, 80 nM; in the data set with MDA-MB-231, 270 nM. In addition, the Activity with 661W is greater than 10 µM.
Regarding `CC(C)c1cc(C(=O)Nc2cccnc2)c(O)cc1O`, the GI50 in the data set on A549 was greater than 10000 nM.
On to `CC(C)c1cc(C(=O)N(C)c2ccc3[nH]ccc3c2)c(O)cc1O`, for which the GI50 at 48 h in data set [1] came to 570 nM. The GI50 in the data set on HCT-116 came to 1000 nM; in the data set with A549, 170 nM; in the data set with Hep 3B2, 180 nM; with MDA-MB-231, 70 nM. Further, the IC50 at Heat shock protein HSP90 is 115 nM. For the same compound, the selectivity ratio in “in vitro” was found to be 3.4.
Regarding `CC(C)c1cc(C(=O)N(C)c2ccc3c(ccn3C)c2)c(O)cc1O`, the GI50 at 48 h in [1] turned out to be 820 nM. Also, the GI50 with HCT-116 stood at 700 nM; with A549, 280 nM; in the data set with Hep 3B2 it was 570 nM; in the data set with MDA-MB-231, 100 nM. In addition, the IC50 on Heat shock protein HSP90 turned out to be 106 nM. In addition, the selectivity ratio in the data set “in vitro” came out at 2.9.
As to `CCCN(C(=O)c1cc(C(C)C)c(O)cc1O)c1ccncc1`, in the data set with A549, the GI50 worked out at 370 nM.
On to `CCCN(C(=O)c1cc(C(C)C)c(O)cc1O)c1cccnc1`, for which the GI50 in the data set with A549 is 390 nM.
As for `COC(=O)c1ccccc1-c1c2ccc(=N)cc-2oc2cc(N)ccc12.Cl` [RHODAMINE123], the permeability in data set [2] is listed as 8.04 10^-6 cm/s.
Compound `CCNC(=O)c1noc(-c2cc(C(C)C)c(O)cc2O)c1-c1ccc(CN2CCOCC2)cc1` [LUMINESPIB] registered an Activity in the data set with 661W of 0.04 µM.
For `CC(C)c1cc(C(=O)Nc2ccc3[nH]ccc3c2)c(O)cc1O`, the GI50 in the data set with A549 is greater than 10000 nM.
For `CCN(C(=O)c1cc(C(C)C)c(O)cc1O)c1ccncc1`, in data set [1], the 50% growth inhibitory concentration (GI50) at 48 h is less than 100 nM. Besides, the GI50 stood at 640 nM in the data set with HCT-116, 120 nM with A549, 100 nM in the data set with Hep 3B2 and 80 nM in the data set with MDA-MB-231. The concentration for half-maximal inhibition (IC50) on Heat shock protein HSP90 was determined as 109 nM. In addition, the selectivity ratio in the data set “in vitro” stood at 0.8.
In the case of `CCCN(C(=O)c1cc(C(C)C)c(O)cc1O)c1ccc2c(ccn2C)c1`, in the data set on A549, the GI50 amounted to 300 nM.
Take `CCCN(C(=O)c1cc(C(C)C)c(O)cc1O)c1ccc2[nH]ccc2c1`: the GI50 in the data set on A549 was found to be 140 nM.

A word on the GI50: it is the concentration at which growth is held to half of that of the control. As usually defined, the IC50 is the concentration that gives 50% inhibition.
